Reference: US10059956B2, “Glycosyltransferase gene and use thereof” (SUNTORY HOLDINGS LIMITED, priority 2012, dated 2018)

Tested on: NmGT8 protein
Test: Enzyme reaction of flavone substrates with His-tag purified NmGT8 protein solution and UDP-glucose (HPLC)
Type: biochemical, Nemophila menziesii
Conditions: NmGT8 protein solution, UDP-glucose, 1 mM substrate stock, 20 minutes at 30° C., HPLC 330 nm
Method: The transformed E. coli were cultured at 37° C. to an OD600 value of 0.5 in 8 ml of the prepared culture liquid (approx. 4 hours). This E. coli culture liquid was then used as a pre-culture liquid and added to 200 ml of culture liquid followed by final culturing overnight at 25° C.
Following final culturing overnight, the E. coli culture liquid was centrifuged (1000×g, 4° C., 10 minutes), the collected cells were suspended in 20 ml of extract (composition: buffer (KCl: 300 mM, KH2PO4: 50 mM, imidazole: 5 mm) (pH 8.0), amidinophenylmethanesulfonyl fluoride hydrochloride (APMSF): 10 μM), and after crushing the E. coli by ultrasonic treatment, the crushed cells were centrifuged (1400×g, 4° C., 20 minutes) followed by recovery of the supernatant. This supernatant was passed through a 0.45 μm filter and purified by His-Tag protein purification using Profinia (Bio-Rad Laboratories, Inc.) in accordance with the protocol recommended by the manufacturer. The resulting purified protein solution was centrifuged (7500×g, 4° C., 15 minutes) using centrifugal filters (Ultracel-10K, Amicon Corp.) and the concentrated protein solution was designated as “NmGT8 Protein Solution”. The Avanti HP-26XP (rotor: JA-2) (Beckman Coulter Inc.) was used for centrifugation.
A reaction liquid prepared by mixing 10 μl of protein solution, 2 μl of 50 mM UDP-glucose, 10 μl of 1 M Tris HCl (pH 7.5) and 5 μl of 1 mM apigenin on ice and bringing to a volume of 100 μl with water was held for 20 minutes at 30° C. Subsequently, 100 μl of stop buffer (90% aqueous acetonitrile solution containing 0.1% TFA) were added to stop the reaction followed by analyzing the reaction liquid by high-performance liquid chromatography (Prominence (Shimadzu Corp.)). The Shimadzu PDA SPD-M10AVP was used for the detector and flavone was detected at 330 nm. The Shim-Pack ODS 150 mm×4.6 mm column (Shimadzu Corp.) was used for the column. A Solution A (0.1% aqueous TFA solution) and a Solution B (90% aqueous methanol solution containing 0.1% TFA) were used for elution. Elution was carried out using a linear concentration gradient from an 8:2 mixture of the two solutions to a 3:7 mixture of the two solutions over the course of 10 minutes followed by a 3:7 mixture for 6 minutes. The flow rate was 0.6 ml/min.

SMILES | glycosylation product biosynthesized from the substrate
O=c1cc(-c2ccc(O)cc2)oc2cc(O[C@@H]3O[C@H](CO)[C@@H](O)[C@H](O)[C@H]3O)cc(O)c12 [apigenin 7-glucoside] | apigenin 4′,7-diglucoside was not biosynthesized
O=c1cc(-c2ccc(O)c(O)c2)oc2cc(O)cc(O)c12 [luteolin, 3′,4′,5,7-tetrahydroxyflavone] | Luteolin 4′-glucoside was biosynthesized
O=c1cc(-c2ccc(O)c(O)c2)oc2cc(O[C@@H]3O[C@H](CO)[C@@H](O)[C@H](O)[C@H]3O)cc(O)c12 [luteolin 7-glucoside] | luteolin 4′,7-diglucoside was also not biosynthesized
O=c1cc(-c2ccc(O)cc2)oc2cc(O)cc(O)c12 [apigenin, 4′,5,7-trihydroxyflavone] | flavone demonstrating the same retention time and absorption maximum as purified apigenin 4′-glucoside was biosynthesized
